Results reported in patent US20050197651A1, “Vaginal ring preparation and its application” (priority 2001, published 2005).

Test: Drug releasing test of the vaginal ring (shaking water bath, HPLC)
Type: physicochemical
Details: device of the current invention vs prior art device, FIG. 4 vs FIG. 3 and FIG. 6 vs FIG. 5
Description: Drug Releasing Test: Devices used: 1. High Pressure Liquid Chromatography (HPLC). Shimadzu LC-1 OA T • 2. Shaking water bath: HZS-H Process: • 1. Tie the vaginal ring into a big test tube (125 ml). Add 100 ml distilled water into the tube under 37C. Shake the testing tube for 24 hours with shaking rate of 60/minute. Then take the vaginal ring out. • 2. The standard sample is the Mifepristone provided by Shanghai Family Planning Institute. • 3. C-18-[…] Analytic column (Brand: Shimadzu): Pre-set HPLC. The testing conditions are: • Wavelength 310 nm. • Sensitivity: 0.1 AUFS • Speed: 3 Atten. 5 • Flow phase: methanol: water=70:30 • Moving speed=1 ml/minute • Injection amount: 10 μl • Peak time: 5.48 minutes Take 23 μl/ml standard sample, 10 μl injection sample to get the peak area of 656504-656800. Prepare the calibration based on the amount contained in 100 ml.

| SMILES | delivery rate over days, compared with prior art vaginal ring |
| --- | --- |
| C#C[C@]1(O)CC[C@H]2[C@@H]3CCC4=Cc5oncc5C[C@]4(C)[C@H]3CC[C@@]21C [Danazol] | higher delivery rate of this drug over a longer period of time |
| CC#C[C@]1(O)CC[C@H]2[C@@H]3CCC4=CC(=O)CCC4=C3[C@@H](c3ccc(N(C)C)cc3)C[C@@]21C [Mifestone, Mifepristone] | significantly higher over a longer period of time |
